Data set [1] concerns KB cell line. Conditions: read-out: IC50 in KB cell line (++++); FA ligands per particle 12-22; linker-drug conjugates per particle 17-25. The method, then:
The in vitro cytotoxicity of the NDCs disclosed herein were tested in cancer cells. The cancer cells were cultured in folic acid-free medium (RPMI1640, ThermoFisher, GIBCO) for at least one week before the study. Cells were plated in opaque 96-well plates at a density of 3×10^3 cells per well (total of […]) and allowed to attach overnight. The following day, cells were treated with NDC (FA-CDC) prepared using the linker-payload conjugate precursor compound 202 (Example 33), at a concentration range of 0-50 nM (0, 0.001, 0.005, 0.01, 0.05, 0.1, 0.5, 1, 5, 10, 50 nM) by adding […] of 10x stock FA-CDC Solution.
Cells were treated for a pre-defined exposure time (depending on the study design, e.g., 4-6 hours, or 7 days). In the case of short-exposure-time viability study, cancer cells in each wells were washed with […] PBS and refreshed with […] of cell medium. After washing, the plates were returned back to 37° C. incubator for 7 days before the viability assay. In the case of 7-day-exposure-time viability study, no additional washing step was performed. After 7 days, the cell viability was assessed using the CellTiter-Glo2.0 assay (Promega) according to manufacturer's instructions. Data for both viability and proliferation were plotted using Prism7 software (GraphPad).

Data set [2] can be described thus: Drug-release assay of nanoparticle-conjugated linker-payloads under cleavage conditions (Cat-B, redox-responsive or pH-sensitive cleaving study), RP-HPLC. The format is in vitro ADME. Conditions: linker-payload conjugated to DBCO-functionalized silica nanoparticle, 37° C., 24 hours. The essentials:
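Azide linker-drugs were click-conjugated to DBCO-functionalized ultrasmall silica nanoparticles and incubated under cleavage conditions, e.g., Cat-B in 25 mM MES, 5 mM DTT, pH 5.0. Released versus non-released drug was quantified by C18 RP-HPLC peak area. Gradients were 0.01% TFA water/acetonitrile for protease/redox linkers and water/acetonitrile for pH-sensitive linkers.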

In data set [3] the test system is Human KB cells. As to the kind of experiment: Cell viability assay of payloads (CellTiter-Glo 2.0). In kind it is cell-based. Conditions: 168 h, read-out: IC50 values (diluted in RPMI medium). The method, then: Method: Human KB cells (ATCC® CCL-17™) were cultured in folic acid free rpmi-1640 medium (ThermoFisher, GIBCO) for at least 7 days before the study. The cells were seeded in opaque 96-well plates and allowed to attach overnight (cell density was carefully controlled to be 3,000 cells per well at the time of assay). After that, cells were treated with drug analogs (suspended in the same RPMI-1640 medium) at a concentration of zero to 1,000 nM. After 7 days, cell viability was assessed using the CellTiter-Glo® 2.0 assay (Promega) according to the manufacturer's instructions. The percent of viable cells at each concentration was calculated by normalizing the luminescence values to the untreated control. The half-maximal inhibitory concentration (IC50) of the payloads were plotted and fitted by using the Prism 8 software (GraphPad). Table 2 provides the IC50 of the payloads of the present disclosure (‘+’ indicates 1-9.9 nm; ‘++’ indicates 10-100 nm).

Structures can show the parent of a compound that is named as a salt. Where two headings read alike, the source gives them in different places.

Take `CCc1c2c(nc3ccc(OCC(=O)N/N=C(\C)c4ccc(OCCCCOCCOCCOCCOCCOCCOCCN=[N+]=[N-])cc4)cc13)-c1cc3c(c(=O)n1C2)COC(=O)[C@]3(O)CC` [Example 75, (S,E)-N′-(1-(4-((1-azido-3,6,9,12,15,18-hexaoxadocosan-22-yl)oxy)phenyl)ethylidene)-2-((4,11-diethyl-4-hydroxy-3,14-dioxo-3,4,12,14-tetrahydro-1H-pyrano[3′,4′:6,7]indolizino[1,2-b]quinolin-9-yl)oxy)acetohydrazide]: the 50% inhibitory concentration (IC50) in data set [1] is 0.0427 µM.

For `CC[C@@]1(O)C(=O)OCc2c1cc1n(c2=O)Cc2c-1nc1cc(F)c(C)c3c1c2[C@@H](NC(=O)OCc1c(F)cc(NC(=O)[C@H](CCCNC(N)=O)NC(=O)[C@@H](NC(=O)CCOCCOCCOCCOCCOCCOCCOCCOCCOCCN=[N+]=[N-])C(C)C)cc1F)CC3` (single isomer, unassigned) [Example 27, 4-((32s,35s)-1-azido-32-isopropyl-30,33-dioxo-35-(3-ureidopropyl)-3,6,9,12,15,18,21,24,27-nonaoxa-31,34-diazahexatriacontan-36-amido)-2,6-difluorobenzyl ((1s,9s)-9-ethyl-5-fluoro-9-hydroxy-4-methyl-10,13-dioxo-2,3,9,10,13,15-hexahydro-1H,12H-benzo[de]pyrano[3′,4′:6,7]indolizino[1,2-b]quinolin-1-yl)carbamate], the concentration for half-maximal inhibition (IC50) in data set [1] is 0.0052 µM. Further, in data set [2], the “% of Payload Release in 24 Hours Under Cleavage Conditions” value (“% of Payload Release” for short) was “++++ (‘++++’ indicates 76-100% release)”.

For `CC[C@@]1(O)C(=O)OCc2c1cc1n(c2=O)Cc2c-1nc1cc(F)c(C)c3c1c2[C@@H](Nc1nc(Cl)nc(NCCSSC(C)(C)CN)n1)CC3` [Example 377, (1S,9S)-1-((4-((2-((1-amino-2-methylpropan-2-yl)disulfaneyl)ethyl)amino)-6-chloro-1,3,5-triazin-2-yl)amino)-9-ethyl-5-fluoro-9-hydroxy-4-methyl-1,2,3,9,12,15-hexahydro-10H,13H-benzo[de]pyrano[3′,4′:6,7]indolizino[1,2-b]quinoline-10,13-dione 2,2,2-trifluoroacetate], the IC50 in data set [3] (Homo sapiens, KB) lay in the range of 0.01 to 0.1 µM.

For the compound `CCc1c2c(nc3ccc(OCCCSC(C)=O)cc13)-c1cc3c(c(=O)n1C2)COC(=O)[C@]3(O)CC` [Example 327], the IC50 in data set [3] (Homo sapiens, KB) lay within 0.01 to 0.1 µM.

Take `CC[C@@]1(O)C(=O)OCc2c1cc1n(c2=O)Cc2c-1nc1cc(F)c(C)c3c1c2[C@@H](NC(=O)OCc1ccc(SSC(C)(C)CNC(=O)CCOCCOCCOCCOCCOCCOCCOCCOCCOCCN=[N+]=[N-])cc1)CC3` [Example 58, 4-((1-azido-33-methyl-30-oxo-3,6,9,12,15,18,21,24,27-nonaoxa-31-azatetratriacontan-33-yl)disulfanyl)benzyl ((1S,9S)-9-ethyl-5-fluoro-9-hydroxy-4-methyl-10,13-dioxo-2,3,9,10,13,15-hexahydro-1H,12H-benzo[de]pyrano[3′,4′:6,7]indolizino[1,2-b]quinolin-1-yl)carbamate]: in data set [1], the 50% inhibitory concentration (IC50) amounted to 0.0494 µM. In addition, the “% of Payload Release” value in data set [2] is listed as “++++ (‘++++’ indicates 76-100% release)”.

On to `CCc1c2c(nc3ccc(OCCCNC(=O)OCc4ccc(NC(=O)[C@H](CCCCN)NC(=O)[C@H](Cc5ccccc5)NC(=O)CCOCCOCCOCCOCCOCCOCCOCCOCCOCCN=[N+]=[N-])cc4)cc13)-c1cc3c(c(=O)n1C2)COC(=O)[C@]3(O)CC` [Example 28, 4-((32S,35S)-35-(4-aminobutyl)-1-azido-32-benzyl-30,33-dioxo-3,6,9,12,15,18,21,24,27-nonaoxa-31,34-diazahexatriacontan-36-amido)benzyl (3-(((S)-4,11-diethyl-4-hydroxy-3,14-dioxo-3,4,12,14-tetrahydro-1H-pyrano[3′,4′:6,7]indolizino[1,2-b]quinolin-9-yl)oxy)propyl)carbamate], for which, in data set [1], the IC50 amounted to 0.0722 µM. Also, the “% of Payload Release” value in data set [2] is “+++ (‘+++’ indicates 51-75% release)”.

For `CCc1c2c(nc3ccc(Oc4nc(Cl)nc(NCCSSCCN)n4)cc13)-c1cc3c(c(=O)n1C2)COC(=O)[C@]3(O)CC` [Example 463, (S)-9-((4-((2-((2-aminoethyl)disulfaneyl)ethyl)amino)-6-chloro-1,3,5-triazin-2-yl)oxy)-4,11-diethyl-4-hydroxy-1,12-dihydro-14H-pyrano[3′,4′:6,7]indolizino[1,2-b]quinoline-3,14(4H)-dione], the IC50 in data set [3] (Human KB cells, 7 days treatment, 0-1,000 nM) was in the range of 0.01 to 0.1 µM.

Regarding `CC[C@@]1(O)C(=O)OCc2c1cc1n(c2=O)Cc2c-1nc1cc(F)c(C)c3c1c2[C@@H](NC(=O)CSSC(C)(C)CN)CC3` [Example 454, 2-((1-amino-2-methylpropan-2-yl)disulfaneyl)-N-((1S,9S)-9-ethyl-5-fluoro-9-hydroxy-4-methyl-10,13-dioxo-2,3,9,10,13,15-hexahydro-1H,12H-benzo[de]pyrano[3′,4′:6,7]indolizino[1,2-b]quinolin-1-yl)acetamide 2,2,2-trifluoroacetic acid salt], the IC50 in data set [3] (Homo sapiens, KB) lay within 0.01 to 0.1 µM.

As to `CCc1c2c(nc3ccc(OC(C)(C)C(=O)NN)cc13)-c1cc3c(c(=O)n1C2)COC(=O)[C@]3(O)CC` [Example 422, (S)-2-((4,11-diethyl-4-hydroxy-3,14-dioxo-3,4,12,14-tetrahydro-1H-pyrano[3′,4′:6,7]indolizino[1,2-b]quinolin-9-yl)oxy)-2-methylpropanehydrazide], the concentration for half-maximal inhibition (IC50) in data set [3] (Homo sapiens, KB) fell in the range of 0.01 to 0.1 µM.

Regarding `CC[C@@]1(O)C(=O)OCc2c1cc1n(c2=O)Cc2c-1nc1cc(F)c(C)c3c1c2[C@@H](NC(=O)C(O)c1ccc(NC(=O)[C@H](CCCNC(N)=O)NC(=O)[C@@H](NC(=O)CCOCCOCCOCCOCCOCCOCCN=[N+]=[N-])C(C)C)cc1)CC3` (stereo partly drawn) [Example 18, 1-azido-N-((2S)-1-(((2S)-1-((4-(2-(((1S,9S)-9-ethyl-5-fluoro-9-hydroxy-4-methyl-10,13-dioxo-2,3,9,10,13,15-hexahydro-1H,12H-benzo[de]pyrano[3′,4′:6,7]indolizino[1,2-b]quinolin-1-yl)amino)-1-hydroxy-2-oxoethyl)phenyl)amino)-1-oxo-5-ureidopentan-2-yl)amino)-3-methyl-1-oxobutan-2-yl)-3,6,9,12,15,18-hexaoxahenicosan-21-amide], the 50% inhibitory concentration (IC50) in data set [1] turned out to be 0.0175 µM. The “% of Payload Release” value in data set [2] is on record as “+++ (‘+++’ indicates 51-75% release)”.

Turning to `CC[C@@]1(O)C(=O)OCc2c1cc1n(c2=O)Cc2c-1nc1cc(F)c(C)c3c1c2[C@@H](NC(=O)CS)CC3` [Example 452, N-((1S,9S)-9-ethyl-5-fluoro-9-hydroxy-4-methyl-10,13-dioxo-2,3,9,10,13,15-hexahydro-1H,12H-benzo[de]pyrano[3′,4′:6,7]indolizino[1,2-b]quinolin-1-yl)-2-mercaptoacetamide], the half-inhibitory concentration (IC50) in data set [3] (Homo sapiens, KB) lay in the range of 0.01 to 0.1 µM.

Turning to `CCc1c2c(nc3ccc(OCCCSSC(C)(C)CN)cc13)-c1cc3c(c(=O)n1C2)COC(=O)[C@]3(O)CC` [Example 331], in data set [3] (Homo sapiens, KB), the half-maximal inhibitory concentration (IC50) lay in the range of 0.01 to 0.1 µM.

The record behind these values is patent US20230241243A1, “CARRIER PARTICLE-DRUG CONJUGATES, SELF-IMMOLATIVE LINKERS, AND USES THEREOF” (priority 2020, published 2023).
